From patent US9708339B2, “1,3-benzothiazinone, sulfoxide, and sulfone compounds with electrophilic substituent” (priority 2014, dated 2017)
Entries after “also recorded” stand apart in the source; their conditions may differ. Where two headings read alike, the source gives them in different places.

What was measured:
H37Rv strain of Mtb = test: Microplate alamar blue assay (MABA), in vitro anti-TB activity in 7H12 and GAS media; type: cell-based, Mycobacterium tuberculosis; conditions: for MIC / percentage in brackets after MIC >1, 7H12 / percentage in brackets after MIC >1, GAS: H37Rv; for activity against H37Rv strain of Mtb (in words): in vitro; for percentage in brackets after MIC >1, 7H12: 7H12 medium; for percentage in brackets after MIC >1, 7H12 / percentage in brackets after MIC >1, GAS: bracketed percentage not defined in the patent; for percentage in brackets after MIC >1, GAS: GAS medium
DprE1 = DprE1 (Mycobacterium tuberculosis, UniProt P9WJF0); conditions: cited from earlier work
Sequence of DprE1 (P9WJF0 whole entry): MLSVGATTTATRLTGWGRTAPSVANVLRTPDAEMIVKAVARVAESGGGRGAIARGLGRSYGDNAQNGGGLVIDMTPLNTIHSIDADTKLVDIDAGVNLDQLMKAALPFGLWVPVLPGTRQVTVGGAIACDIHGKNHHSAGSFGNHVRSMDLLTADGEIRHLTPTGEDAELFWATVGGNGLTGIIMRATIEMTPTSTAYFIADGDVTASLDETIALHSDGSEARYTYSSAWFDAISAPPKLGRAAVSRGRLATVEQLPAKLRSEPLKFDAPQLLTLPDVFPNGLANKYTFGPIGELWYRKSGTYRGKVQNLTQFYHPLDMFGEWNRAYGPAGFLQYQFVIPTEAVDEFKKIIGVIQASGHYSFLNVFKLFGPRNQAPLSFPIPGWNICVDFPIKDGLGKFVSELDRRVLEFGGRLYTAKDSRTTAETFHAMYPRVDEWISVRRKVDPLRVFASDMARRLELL

[1] = Mycobacterium tuberculosis, 7H12 medium (7H9 plus casitone, palmitic acid, albumin and catalase), read-out: MABA:MIC 7H12
[2] = Mycobacterium tuberculosis, GAS (glycerol-alanine-salts) medium, read-out: MABA:MIC GAS
[3] = 7H12 medium (7H9 plus casitone, palmitic acid, albumin and catalase), read-out: MABA:MIC 7H12
[4] = GAS (glycerol-alanine-salts) medium, read-out: MABA:MIC GAS

Row | Compound | MIC (H37Rv strain of Mtb; [1]) [µM] | MIC (H37Rv strain of Mtb; [2]) [µM] | MIC (H37Rv strain of Mtb; [3]) [µM] | MIC (H37Rv strain of Mtb; [4]) [µM] | other results
1 | C[C@H]1COC2(CCN(c3nc(=O)c4cc(C(F)(F)F)cc(N=[N+]=[N-])c4s3)CC2)O1 [Compound 3] | 0.47 | 0.46 | – | – | activity against H37Rv strain of Mtb (in words) (H37Rv strain of Mtb): outstanding activity; also recorded: impressive activity; activity against H37Rv strain of Mtb (in words) (H37Rv strain of Mtb; listed as BTZ-N3): impressive activity
2 | NNC(=O)c1ccncc1 [INH, reference compound] | – | – | 0.1 | 0.03 | –
3 | C[C@H]1COC2(CCN(c3nc(=O)c4cc(C(F)(F)F)cc(-n5cc(CN(C)C)nn5)c4s3)CC2)O1 [Compound 9] | 0.87 | 0.95 | – | – | –
4 | O=c1nc(N2CCN(CC3CCCCC3)CC2)sc2c([N+](=O)[O-])cc(C(F)(F)F)cc12 [PBTZ169] | – | – | – | – | mode of DprE1 inhibition (in words) (DprE1): suicide inhibitor
5 | C[C@H]1COC2(CCN(c3nc(=O)c4cc(C(F)(F)F)cc([N+](=O)[O-])c4s3)CC2)O1 [BTZ043, reference compound] | < 0.004 | < 0.004 | – | – | mode of DprE1 inhibition (in words) (DprE1): suicide inhibitor
6 | C[C@H]1COC2(CCN(c3nc(=O)c4cc(C(F)(F)F)cc(N)c4s3)CC2)O1 [Compound 6] | – | – | > 1 | > 1 | percentage in brackets after MIC >1, 7H12 (H37Rv strain of Mtb): 87%; percentage in brackets after MIC >1, GAS (H37Rv strain of Mtb): 0%
7 | CO[C@H]1/C=C/O[C@@]2(C)Oc3c(C)c(O)c4c(O)c(c(/C=N/N5CCN(C)CC5)c(O)c4c3C2=O)NC(=O)/C(C)=C\C=C\[C@H](C)[C@H](O)[C@@H](C)[C@@H](O)[C@@H](C)[C@H](OC(C)=O)[C@@H]1C [Rifampin, reference compound] | 0.05 | 0.04 | – | – | –
8 | CC1COC2(CCN(c3nc(=O)c4cc(C(F)(F)F)ccc4s3)CC2)O1 (centres unmarked) [Compound 8] | – | – | > 1 | > 1 | percentage in brackets after MIC >1, 7H12 (H37Rv strain of Mtb): 87%; percentage in brackets after MIC >1, GAS (H37Rv strain of Mtb): 36%; activity against H37Rv strain of Mtb (in words) (H37Rv strain of Mtb): not significantly active; also recorded: reduced
